Where “and” joins values, the source holds several entries; their conditions need not be identical. Equal values may be shown once.
Legend:
[1] = system: neonatal mouse cardiac myocytes; format: cell-based; settings: DOX 0.5–5 μM with 1 μM sildenafil
Method: Neonatal mouse myocytes in culture are incubated with 0.5–5 μM of DOX (in the presence or absence of 1 μM sildenafil) for 18 hours. The cells are then incubated with drug free growth medium for an additional 24 hours. Cytotoxicity of DOX is quantitatively assessed by measuring the percentage of cells killed and the amount of creatine kinase (CK) released into the media. In addition, a trypan blue exclusion assay and propidium iodide nuclear stain are used to quantitate cell death. Since DOX induces cardiomyopathy through the release of reactive oxygen species, lipid peroxidation in the cells is also measured as an index of oxidative damage.
Neonatal mouse cardiac myocyte cultures are used for membrane potential studies. Cells in culture are treated with 0.5–5 μM of DOX (in the presence or absence of 1 μM sildenafil) for 18 hours. The cells are then incubated with drug free growth medium for an additional 24 hours. Additional groups are included where the cells are treated with a mitoKATP channel blocker (5-hydroxydecanoate, 100 μM), surface channel blocker (HMR1098, 30 μM) or cyclosporine, a mitochondrial membrane potential (Ψm) blocker (5 μM). For assessment of apoptosis, the TUNEL assay is used, which is an accurate method for distinguishing apoptosis from necrosis by specifically detecting DNA cleavage and chromatin condensation characteristic of apoptosis. Additionally, positive TUNEL staining directly correlates with the more typical biochemical and morphological aspects of apoptosis. Since an understanding of cell morphology is critical for data interpretation, apoptotic morphology is simultaneously assessed according to accepted scientific criteria previously described (Nor-Avi, 1999). The in situ staining of DNA strand breaks detected by the TUNEL assay along with subsequent morphological observation via epifluorescent, confocal, and electron microscopy, provides significant and reliable data regarding the identification of apoptotic cells, even in tissue samples where apoptosis represents a small segment of the population (Manning 1994). In addition, several other key indicators of apoptosis including annexin-V, cytosolic cytochrome c, caspase 3, caspase 8, as well as poly (ADP-ribose) polymerase cleavage in these groups, are measured. Mitochondrial membrane potential (Ψm) using a fluorescent indicator probe, JC-1 (Molecular Probes, Eugene, Oreg.) is measured.

[2] = system: rabbit heart, ischemia/reperfusion injury; test: In situ rabbit model of myocardial infarction (30 min coronary occlusion, 180 min reperfusion), infarct size by TTC staining; format: in vivo; settings: for reduction of infarct size vs saline control: 0.7 mg/kg IV
iNOS = test: Cardiac iNOS mRNA (RT-PCR) and protein (Western blot) expression after treatment; format: in vivo, mouse; settings: 0.7 mg/kg IP
Method: Adult male outbred ICR mice were supplied by Harlan Inc (Indianapolis, Ind.). Viagra pills (Pfizer Inc) were ground into powder and dissolved in saline. The drug solution was filtered (0.45-μm pore size) before intraperitoneal injection. 1400W, an iNOS inhibitor, was obtained from Alexis. We used an isolated perfused mouse heart model subjected to 20 minutes of global ischemia and 30 minutes of reperfusion (Langendorff mode). Myocardial I-R injury was assessed by measuring infarct size, contractile function, and coronary flow as described previously (Xi, 1999). Twenty-eight mice were randomized into the following 4 groups: (n=6 to 9 per group): (1) saline (0.15 mL IP), (2) sildenafil (0.7 mg/kg IP, equivalent to 50 mg Viagra pill used for patients with erectile dysfunction, given 24 hours before I-R), (3) sildenafil+1400W (10 mg/kg IP, 14 given 30 minutes before I-R), and (4) saline+1400W. Measurement of NOS Isoforms Mice were treated with sildenafil (0.7 mg/kg IP), and their hearts were removed at 15, 30, and 45 minutes and 1, 2, 3, 4, and 24 hours after injection (n=3 per group). Three nontreated hearts were used as controls. Tissue samples were ground under liquid nitrogen and homogenized with TRI Reagent (Molecular Research Center) for extracting total RNA, which was reverse-transcribed into cDNA at 50° C. for 30 minutes using a OneStep reverse transcription (RT)-polymerase chain reaction (PCR) kit from Qiagen. The oligonucleotide primers were synthesized on the basis of published sequences for murine iNOS, eNOS, and GAPDH15 (Integrated DNA Technology). The RT-PCR products were electrophoresed on 1.5% Trisacetate-EDTA agarose gel. The target bands were identified on the basis of their specific size using DNA standards. iNOS and eNOS proteins were measured by Western blots as described previously. […] The mRNA and protein expression were quantified by scanning each of the RT-PCR or Western blot band using a densitometer (Bioquant 98). […]

CCCc1nn(C)c2c(=O)[nH]c(-c3cc(S(=O)(=O)N4CCN(C)CC4)ccc3OCC)nc12 [sildenafil]
effect on DOX-induced apoptosis indicators [1]: aborted | effect on DOX-induced parameters of injury (CK release, trypan blue uptake, lipid hydroperoxides) [1]: reversed | infarct size ([2]; 0.1 mg/kg, 30 minutes prior to ischemia): 17.05% | infarct size ([2]; 0.2 mg/kg, 30 minutes prior to ischemia): 13.53±1.24 | infarct limiting effect at lower doses (0.2 and 0.1 mg/kg) versus the 0.7 mg/kg dose ([2]; 30 minutes prior to ischemia): comparable | reduction of infarct size vs saline control ([2]; acute phase, 0.7 mg/kg): 68% and 67% | infarct size ([2]; acute phase: sildenafil 0.7 mg/kg IV 30 min prior to ischemia/reperfusion): 10.8±0.9 % of risk area | reduction of infarct size vs saline control ([2]; delayed phase): 41% | infarct size ([2]; delayed phase: sildenafil 0.7 mg/kg IV 24 hrs prior to ischemia/reperfusion): 19.9±2.0 % of risk area | infarct size ([2]; total dose 0.7 mg/kg infused from 25 min of ischemia into reperfusion for 1 hr, 0.7 mg/kg): 18.37±2.42 | infarct size ([2]; total dose 0.7 mg/kg infused from 25 min of ischemia into reperfusion for 1 hr, listed as Sildenafil, 0.7 mg/kg): significant reduction in the infarct size | iNOS mRNA and protein expression (iNOS): increase | magnitude of increase, iNOS compared with eNOS (iNOS): much higher for iNOS | time of peak iNOS mRNA level (iNOS): 2 h
